The text below walks through data of patent US7994334B2, “Fungicide pyridinyloxy substituted phenylamidine derivatives” (Bayer Cropscience AG, priority 2005, dated 2011).

One series in a line: logP by HPLC on reversed-phase column (C 18), EEC Directive 79/831 Annex V.A8. Conditions: C 18, 40° C., 0.1% aqueous formic acid and acetonitrile. It is filed as physicochemical. The procedure:
Temperature: 40° C.; Mobile phases: 0.1% aqueous formic acid and acetonitrile; linear gradient from 10% acetonitrile to 90% acetonitrile.
On to `Cc1cc(Oc2cc(Cl)cc(C(C)C)n2)c(C)cc1N=CN(C)C(C)C` [Example 34], for which the logPa was 2.34.
The same measure, in the same setting: then `CCN(C)C=Nc1cc(C(C)C)c(Oc2cc(C(F)(F)F)cc(Cl)n2)cc1C` [Example 24], with 2.87; and `CCN(C)C=Nc1cc(C)c(Oc2ccc(Cl)cn2)cc1C` [Example 8], with 1.84.
Still for that read-out and setting: in the case of `Cc1cc(Oc2cc(C(F)(F)F)cc(Cl)n2)c(C(C)C)cc1N=CN(C)C(C)C` [Example 21] it was 2.97; in that of `CCN(C)C=Nc1cc(C)c(Oc2ccc(C(F)(F)F)c(Cl)n2)cc1C` [Example 6], 2.36; in that of `CCN(C)C=Nc1cc(C)c(Oc2cc(C(F)(F)F)c(F)c(F)n2)cc1C` [Example 62], 2.31.
On the same count and under the same terms, in the case of `CCN(C)C=Nc1cc(C)c(Oc2ncc(C(F)(F)F)cc2Cl)cc1C` [Example 44] it was 2.15.
For the molecule `CCN(C)C=Nc1ccc(Oc2cc(C(F)(F)F)cc(Cl)n2)cc1C` [Example 4], the logPa worked out at 2.20.
The same measure, in the same setting: then `Cc1cc(Oc2cccc(Br)n2)c(C)cc1N=CN1CCCC1` [Example 60], with 1.90; and `Cc1cc(Oc2ccc(C#N)cn2)c(C)cc1N=CN1CCCC1` [Example 39], with 1.46; and `CCN(C)C=Nc1cc(C)c(Oc2cc(Cl)cc(C)n2)cc1C` [Example 23], with 1.58.
On the same count and under the same terms, in the case of `CCN(C)C=Nc1cc(C)c(Oc2cc(C(F)(F)F)cc(C)n2)cc1C` [Example 25] it was 2.19.
The same measure, in the same setting: in the case of `CCN(C)C=Nc1cc(C)c(Oc2ccc(C#N)cn2)cc1C` [Example 35] it was 1.47.
`Cc1cc(Oc2ccnc(Cl)c2)c(C)cc1N=CN1CCCC1` [Example 71] yielded a logPa of 1.52.
`CCN(C)C=Nc1cc(C)c(Oc2ccc(C)nc2)cc1C` [Example 65] came in with a logPa of 0.60.
On the same count and under the same terms, then `CCN(C)C=Nc1ccc(Oc2ccc(C(F)(F)F)cn2)cc1C` [Example 9], with 1.79; and `CCCN(C)C=Nc1cc(C)c(Oc2cccc(Br)n2)cc1C` [Example 58], with 2.04; and `CCN(C)C=Nc1cc(C)c(Oc2ncc(Cl)cc2Cl)cc1C` [Example 28], with 2.00.
On the same count and under the same terms, in the case of `Cc1cc(Oc2cccc(Br)n2)c(C)cc1N=CN1CCCCC1` [Example 59] it was 2.06.
On the same count and under the same terms, then `CCCN(C)C=Nc1cc(C)c(Oc2ccc(C)c(Cl)n2)cc1C` [Example 51], with 2.17.
In turn, `CCN(C=Nc1cc(C)c(Oc2cc(C(F)(F)F)cc(Cl)n2)cc1C)CC` [Example 18] gave a logPa of 2.59.
Molecule `CCCN(C)C=Nc1cc(C)c(Oc2cc(C(F)(F)F)cc(Cl)n2)cc1C` [Example 19] had a logPa of 2.66.
The molecule `CCCN(C)C=Nc1cc(C)c(Oc2ccc(C#N)cn2)cc1C` [Example 36] gave a logPa of 1.63.
Same read-out and setting: then `CCN(C)C=Nc1cc(C)c(Oc2cccc(Cl)n2)cc1C` [Example 26], with 1.78; and `CCCN(C)C=Nc1cc(C)c(Oc2cc(Cl)cc(C(C)C)n2)cc1C` [Example 54], with 2.35; and `CCc1nccc(Oc2cc(C)c(N=CN3CCCC3)cc2C)c1Cl` [Example 76], with 1.43.
Take `CCc1cc(Cl)cc(Oc2cc(C)c(N=CN3CCCC3)cc2C)n1` [Example 41]: the logPa amounted to 1.95.
Still for that read-out and setting: in the case of `CCN(C)C=Nc1cc(C)c(Oc2cc(Cl)ccn2)cc1C` [Example 56] it was 1.75; in that of `CCN(C)C=Nc1cc(C)c(Oc2ccc(I)cn2)cc1C` [Example 14], 2.10.
For the molecule `CCN(C)C=Nc1ccc(Oc2ncc(C(F)(F)F)cc2Cl)cc1C` [Example 2], the logPa is on record as 2.21.
Take `Cc1cc(Oc2ccc(C#N)cn2)c(C)cc1N=CN1CCCCC1` [Example 38]: the logPa turned out to be 1.58.
As for `CCN(C)C=Nc1cc(C)c(Oc2ccc(C(F)(F)F)c(Cl)n2)cc1C` [Example 11], the logPa is 2.11.
The same measure, in the same setting: in the case of `CCN(C)C=Nc1cc(C)c(Oc2cc(C(F)(F)F)ccn2)cc1C` [Example 27] it was 1.96; in that of `CCN(C)C=Nc1cc(C)c(Oc2cccnc2C)cc1C` [Example 66], 1.56.
The same measure, in the same setting: in the case of `CCN(C)C=Nc1cc(C)c(Oc2cc(Cl)cc(C(C)C)n2)cc1C` [Example 33] it was 2.18; in that of `C=CCN(C)C=Nc1cc(C)c(Oc2ccnc(CC)c2Cl)cc1C` [Example 73], 1.51.
For `CCCN(C)C=Nc1cc(C)c(Oc2ccnc(CC)c2Cl)cc1C` [Example 74], the logPa is 1.59.
Same read-out and setting: then `Cc1cc(Oc2cc(C(F)(F)F)cc(Cl)n2)c(C(C)(C)C)cc1N=CN(C)C(C)C` [Example 20], with 3.17.
On the same count and under the same terms, then `Cc1cc(Oc2ccnc(C(F)(F)F)c2)c(C)cc1N=CN1CCCC1` [Example 80], with 1.69; and `Cc1cc(Oc2ccc(C(F)(F)F)c(Cl)n2)c(C)cc1N=CN(C)C(C)C` [Example 13], with 2.51; and `Cc1cc(Oc2cc(C(F)(F)F)cc(Cl)n2)ccc1N=CN(C)C(C)C` [Example 7], with 2.22.
The molecule `CCN(C)C=Nc1cc(C)c(Oc2ccnc(C(F)(F)F)c2)cc1C` [Example 77] came in with a logPa of 1.75.
On the same count and under the same terms, then `CCN(C)C=Nc1ccc(Oc2ccc(Cl)cn2)cc1C` [Example 5], with 1.58; and `Cc1cc(Oc2ccc(C)c(Cl)n2)c(C)cc1N=CN1CCCCC1` [Example 50], with 2.21.
For `CCCN(C)C=Nc1cc(C)c(Oc2cc(C(F)(F)F)c(F)c(F)n2)cc1C` [Example 63], the logPa worked out at 2.48.
In the case of `CCN(C)C=Nc1cc(C(C)(C)C)c(Oc2cc(C(F)(F)F)cc(Cl)n2)cc1C` [Example 22], the logPa is recorded as 2.83.
Still for that read-out and setting: then `CCN(C)C=Nc1cc(C)c(Oc2ccc(C)c(Cl)n2)cc1C` [Example 49], with 2.01; and `Cc1cc(Oc2cc(Cl)cc(C(C)C)n2)c(C)cc1N=CN1CCCCC1` [Example 53], with 2.34; and `Cc1cc(Oc2ccc(C)c(Cl)n2)c(C)cc1N=CN1CCCC1` [Example 52], with 2.05.
Still for that read-out and setting: then `CCN(C)C=Nc1cc(C)c(Oc2ccc(C(F)(F)F)cn2)cc1C` [Example 10], with 1.86.
Same read-out and setting: in the case of `CCCN(C)C=Nc1cc(C)c(Oc2ncc(Cl)cc2Cl)cc1C` [Example 29] it was 2.22; in that of `CCCN(C)C=Nc1cc(C)c(Oc2ccnc(Cl)c2)cc1C` [Example 72], 1.56.
Consider `CCN(C)C=Nc1cc(C)c(Oc2cccc(Br)n2)cc1C` [Example 57], for which the logPa is recorded as 1.89.
Still for that read-out and setting: in the case of `Cc1cc(Oc2ccnc(C(F)(F)F)c2)c(C)cc1N=CN1CCCCC1` [Example 79] it was 1.78; in that of `CCCN(C)C=Nc1cc(C)c(Oc2ccnc(C(F)(F)F)c2)cc1C` [Example 78], 1.75.
Turning to `Cc1cc(Oc2cc(Cl)cc(C(C)C)n2)c(C)cc1N=CN1CCCC1` [Example 55], the logPa stood at 2.22.
In the case of `Cc1cc(Oc2cccc(Cl)n2)c(C)cc1N=CN1CCCC1` [Example 46], the logPa is listed as 1.81.
In turn, `CCN(C)C=Nc1ccc(Oc2cc(Cl)ccn2)cc1C` [Example 3] displayed a logPa of 1.50.
Still for that read-out and setting: in the case of `CCN(C)C=Nc1cc(C)c(Oc2cccc(-c3ccc(Cl)cc3)n2)cc1C` [Example 45] it was 2.66; in that of `CCCN(C)C=Nc1cc(C)c(Oc2cc(Cl)cc(CC)n2)cc1C` [Example 42], 2.00.
Take `Cc1cc(Oc2cc(C(F)(F)F)cc(Cl)n2)c(C)cc1N=CN(C)C(C)C` [Example 12]: the logPa is on record as 2.52.
The same measure, in the same setting: in the case of `Cc1cc(Oc2cccc(Cl)n2)c(C)cc1N=CN1CCCCC1` [Example 47] it was 1.96; in that of `Cc1cc(Oc2ncc(Cl)cc2Cl)c(C)cc1N=CN(C)C(C)C` [Example 32], 2.24; in that of `CCN(C)C=Nc1cc(C)c(Oc2cccc(C(F)(F)F)n2)cc1C` [Example 61], 1.98.
Same read-out and setting: then `CCN(C)C=Nc1cc(C)c(Oc2cc(-c3ccccc3Cl)c(C)cn2)cc1C` [Example 15], with 2.58; and `C=CCN(C)C=Nc1cc(C)c(Oc2ccc(C#N)cn2)cc1C` [Example 37], with 1.56; and `C=CCN(C)C=Nc1cc(C)c(Oc2ccnc(Cl)c2)cc1C` [Example 81], with 1.74.
On the same count and under the same terms, then `CCN(C)C=Nc1ccc(Oc2ccc(I)cn2)cc1C` [Example 17], with 1.87.
For `CCCc1cc(CCC)nc(Oc2cc(C)c(N=CN(C)CC)cc2C)c1` [Example 30], the logPa is 2.97.
The molecule `CCc1cc(Cl)cc(Oc2cc(C)c(N=CN3CCCCC3)cc2C)n1` [Example 40] showed a logPa of 2.04.
The molecule `CCc1nccc(Oc2cc(C)c(N=CN3CCCCC3)cc2C)c1Cl` [Example 75] yielded a logPa of 1.56.
Same read-out and setting: in the case of `CCc1cc(Cl)cc(Oc2cc(C)c(N=CN(C)CC)cc2C)n1` [Example 48] it was 1.98; in that of `CCN(C)C=Nc1cc(C)c(Oc2ccnc(Cl)c2)cc1C` [Example 69], 1.45; in that of `Cc1cc(Oc2ccnc(Cl)c2)c(C)cc1N=CN1CCCCC1` [Example 70], 1.66.
Same read-out and setting: then `CCN(C)C=Nc1ccc(Oc2cc(-c3ccccc3Cl)c(C)cn2)cc1C` [Example 16], with 2.39.

The series is the same for the next values; noted with them: pH 2.3, C 18.
As for `Cc1cc(Oc2cncc(Cl)c2)c(C)cc1N` [4-(3-chlorpyridyl-5-oxy)-2,5-xylidine], the “log P (pH 2.3)” value was 1.83.
The same measure, in the same setting: in the case of `Cc1cc([N+](=O)[O-])c(C)cc1Oc1cncc(Cl)c1` [4-(3-chlorpyridyl-5-oxy)-2,5-dimethylnitrobenzene] it was 3.61.
Take `CCc1nccc(Oc2cc(C)c(N=CN(C)CC)cc2C)c1Cl` [Example 68, N-Ethyl-N-methyl-N′-[4-(2-ethyl-3-chloropyridyl-4-oxy)-2,5-xylyl]form-amidine]: the “log P (pH 2.3)” value stood at 1.47.
On the same count and under the same terms, in the case of `CCN(C)C=Nc1cc(C)c(Oc2cncc(Cl)c2)cc1C` [Example 64, N-Ethyl-N-methyl-N′-[4-(3-chlorpyridyl-5-oxy)-2,5-xylyl]formamidine] it was 1.70.
Same read-out and setting: in the case of `CCc1nccc(Oc2cc(C)c(N)cc2C)c1Cl` [4-(2-Ethyl-3-chloropyridyl-4-oxy)-2,5-xylidine] it was 1.66.
